Data published in patent publication US9115159B2, “Phosphate compounds, a process for their preparation and pharmaceutical compositions containing them” (LES LABORATOIRES SERVIER, priority 2013, dated 2015).
Several values for one entry are separate records, joined by “and”; a condition that tells them apart may be missing. Identical values can stand only once.

Tests used:
[1] = In vitro test on human Caco-2 cells, cellular transport A to B; type: in vitro ADME; settings: human, Caco-2, drug incubated and measured, A to B, 1 or 3 μM, read-out: Papp, the drug after incubation of the drug
Method in brief: (§1)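 Apical-to-basolateral transport, prodrug or drug dosed apically at 1 or 3 μM in duplicate for 120 minutes. Apical samples at 0 and 120 min and basolateral samples at 120 min quantified by LC-MS/MS (LOQ 2 ng/mL) for prodrug and drug. Papp, predicted human Fabs and percent recovery calculated.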

[2] = tested on: human Caco-2 cells; experiment: as above; type: in vitro ADME; settings: drug incubated and measured, 120 minutes
Method in brief: as §1

[3] = Solubility in water; type: physicochemical
Protocol: The solubility of compounds of formula (I) in water was measured and compared with that of compounds of formula (I′).
More specifically, 4-[{[3-(6-{[(3S)-3-(morpholin-4-ylmethyl)-3,4-dihydroisoquinolin-2(1H)-yl]carbonyl}-1,3-benzodioxol-5-yl)-5,6,7,8-tetrahydroindolizin-1-yl]carbonyl}-(phenyl)amino]phenyl disodium phosphate (also referred to as the compound of Example 1) was tested and compared to N-(4-hydroxyphenyl)-3-{6-[((3S)-3-(4-morpholinylmethyl)-3,4-dihydro-2(1H)-isoquinolinyl)carbonyl]-1,3-benzodioxol-5-yl}-N-phenyl-5,6,7,8-tetrahydro-1-indolizine carboxamide (also referred to as the drug from Example 1).
The solubilities of the compounds were also measured in a medium buffered to physiological pH (cf. Table 3).

[4] = tested on: caspase 3; experiment: Induction of caspase activity in vivo (DEVDase activity in tumour lysates, RS4;11 xenograft); parameters: species or system mice (SCID strain); settings: 100 mg/kg p.o., 16 hours after treatment, RS4;11 tumour lysates, treated mice / control mice
Protocol: The ability of the compounds of formula (I′) to activate caspase 3 is evaluated in a xenograft model of RS4;11 leukaemia cells.
1×10^7 RS4;11 cells are grafted sub-cutaneously into immunosuppressed mice (SCID strain). 25 to 30 days after the graft, the animals are treated orally with the various compounds. Sixteen hours after treatment, the tumour masses are recovered and lysed, and the caspase 3 activity is measured in the tumour lysates.
This enzymatic measurement is carried out by assaying the appearance of a fluorigenic cleavage product (DEVDase activity, Promega). It is expressed in the form of an activation factor corresponding to the ratio between the two caspase activities: the activity for the treated mice divided by the activity for the control mice.
N-(4-Hydroxyphenyl)-3-{6-[((3S)-3-(4-morpholinylmethyl)-3,4-dihydro-2(1H)-isoquinolinyl)carbonyl]-1,3-benzodioxol-5-yl}-N-phenyl-5,6,7,8-tetrahydro-1-indolizine carboxamide (also referred to as the drug from Example 1) was tested. At a dose of 100 mg/kg p.o., the in vivo caspase activation factor is 29.3.

In the case of `O=C(c1cc(-c2cc3c(cc2C(=O)N2Cc4ccccc4C[C@H]2CN2CCOCC2)OCO3)n2c1CCCC2)N(c1ccccc1)c1ccc(O)cc1` [Drug from Example 1, N-(4-hydroxyphenyl)-3-{6-[((3S)-3-(4-morpholinylmethyl)-3,4-dihydro-2(1H)-isoquinolinyl)carbonyl]-1,3-benzodioxol-5-yl}-N-phenyl-5,6,7,8-tetrahydro-1-indolizine carboxamide], the Papp A→B at 120 min [1] is reported as 0.65 ×10⁻⁶ cm/s, the “Yield (experiment yield), the drug after incubation of the drug” value [2] is reported as “Yield (%) = 37” and the “Fabs (predicted absorbed fraction in humans), the drug after incubation of the drug” value ([2]; A to B, 1 or 3 μM) is reported as “Fabs (%) = 67”. For the same compound, the solubility [3] was 40 µg/mL and 56.2 µM and the “in vivo caspase activation factor” value [4] was 29.3.
